Data published in patent US20170290336A1, “Isolated Bacterial Strain of the Genus Burkholderia and Pesticidal Metabolites Therefrom” (Marrone Bio Innovations, Inc., priority 2010, published 2017).

Tests used:
[1] = test system: 1st instar Beet Army Worm (Spodoptera exigua); test: 96-well diet overlay assay; type: in vivo; conditions: 10 μg/mL concentration per well, 100 μl on diet, 6 days at 26° C.; for mortality at 10 µg/mL: Spodoptera exigua, 144 h
Method: The insecticidal activity of templamide A, B, FR901465 and FR90128 are tested in a laboratory assay using a 96-well diet overlay assay with ^1st instar Beet Armyworm larvae using microtiter plates with 200 μl of solid, artificial Beet Armyworm diet in each well. One hundred (100) μl of each test sample is pipetted on the top of the diet (one sample in each well), and the sample is let dry under flowing air until the surface is dry. Each sample was tested in six replicates, and water and a commercial Bt (B. thuringiensis) product are used as negative and positive controls, respectively. One first instar larvae of the test insect (Beet armyworm—Spodoptera exiqua) was placed in each well, and the plate was covered with plastic cover with airholes. The plates with insects were incubated at 26° C. for 6 days with daily mortality evaluations. Based on the results presented in Table 12, templamide A and B results in 40% and 80% mortality, respectively.

[2] = test system: barnyard grass (Echinochloa crus-galli) seedlings; test: Herbicidal laboratory assay, 96-well plate; type: in vivo; conditions: after five days; for Grass seedlings (% Mortality): 10 μg/mL concentration per well
Method: The herbicidal activity of the active compound FR90128 (MW 540) is tested in a laboratory assay using one-week old barnyard grass (Echinochloa crus-galli) seedlings in a 96-well plate platform. One grass seedling was placed in each of the wells containing 99 microliters of DI water. One microliter aliquot of the pure compound in ethanol (10 mg/mL) is added into each well, and the plate is sealed with a lid. One microliter of ethanol in 99 microliters of water is used as a negative control. The treatments were done in eight replicates, and the sealed plate is incubated in a greenhouse under artificial lights (12 hr light/dark cycle). After five days, the results are read.
(§1) The herbicidal activity of templamide A, B, FR901465 and FR90128 are tested in a laboratory assay using one-week old barnyard grass (Echinochloa crus-galli) and lettuce (Lactuca sativa L.) seedlings in a 96-well plate platform. One seedling is placed in each of the wells containing 99 microliters of DI water. Into each well, a one microliter aliquot of the pure compound in ethanol (10 mg/mL) is added, and the plate is sealed with a lid. One microliter of ethanol in 99 microliters of water is used as a negative control. The treatments are done in eight replicates, and the sealed plate is incubated in a greenhouse under artificial lights (12 hr light/dark cycle). After five days, the results are read. […] The herbicidal activity of templamide A against lettuce seedlings is slightly lower than for the grass. On the other hand, templamide B provides a better (100%) control of lettuce seedlings (used as a model system for broadleaf weeds) than templamide A (Table 11).

Monilinia fructicola = test: In vitro PDA plate assay, filter paper disks; type: cell-based; conditions: 10 μL of 1.25-20 mg/mL on disks; 5 days
Method: (§2) Fungicidal activity of FR90128 (MW 540) against three plant pathogenic fungi (Botrytis cinerea, Phytophtora sp., Monilinia fructicola) is tested in an in vitro PDA (potato dextrose agar) plate assay. Plates are inoculated with the fungus using a plug method. After the fungus had established and started to grow on the growth medium, eight sterile filter paper disks are placed on each plate about 1 cm from the edge in a circle. Ten microliters of ethanol solution containing 20, 15, 10, 7.5, 5, 2.5 1.25 mg FR90128/mL is added into filter paper disks, and the solution is left to evaporate. One disk imbedded with 10 μL of pure ethanol is used as a negative control. The assay is done with three replicates. Plates are incubated at room temperature for 5 days, after which the fungicidal activity is recorded by measuring the inhibition zone around each filter paper disk corresponding to different concentrations of FR90128.

Botrytis cinerea = test: In vitro PDA plate assay, filter paper disks; type: cell-based; conditions: 5 days
Method: as §2

Phytophtora sp. = test: In vitro PDA plate assay, filter paper disks; type: cell-based; conditions: 5 days
Method: as §2

B. cepacia isolates = conditions: 366 B. cepacia isolates; cited from earlier work
Burkholderia A396 = test: Antibiotic susceptibility, antibiotic disks on Muller-Hinton medium; type: cell-based, Burkholderia sp. A396; conditions: 72-hour incubation at 25° C.
Method: Antibiotic susceptibility of Burkholderia A396 is tested using antibiotic disks on Muller-Hinton medium as described in PML Microbiological's technical data sheet #535.

B. cepacia complex = conditions: 2,621 strains in B. cepacia complex from cystic fibrosis patients; cited from earlier work
lettuce = test: 96 well plate lettuce seeding assay; type: in vivo; conditions: bioassay-guided isolation
Method: The culture broth derived from the 10-L fermentation Burkholderia (A396) in Hy soy growth medium is extracted with Amberlite XAD-7 resin (Asolkar et al., 2006) by shaking the cell suspension with resin at 225 rpm for two hours at room temperature. The resin and cell mass are collected by filtration through cheesecloth and washed with DI water to remove salts. The resin, cell mass, and cheesecloth are then soaked for 2 h in acetone after which the acetone is filtered and dried under vacuum using rotary evaporator to give the crude extract. The crude extract is then fractionated by using reversed-phase C18 vacuum liquid chromatography (H2O/CH3OH; gradient […] to 0:100%) to give 10 fractions. These fractions are then concentrated to dryness using rotary evaporator and the resulting dry residues are screened for biological activity using 96 well plate lettuce seeding assay. The active fractions are then subjected to reversed phase HPLC (Spectra System P4000 (Thermo Scientific) to give pure compounds, which are then screened in above mentioned bioassays to locate/identify the active compounds. To confirm the identity of the compound, additional spectroscopic data such as LC/MS and NMR is recorded.

[3] = test system: lettuce (Lactuca sativa L.) seedlings; test: Herbicidal laboratory assay, 96-well plate; type: in vivo; conditions: 10 μg/mL concentration per well, after five days
Method: as §1

[4] = test system: green peach aphid (Myzus persicae); test: Sucking insect test in vivo on mustard plants; conditions: positive control (Avid) sprayed; 10 aphids at Day 0
Method: The in vivo efficacy of the filtered whole cell broth is tested in a plant assay with mustard plants and green peach aphid (Myzus persicae) as the test insect. Approximately one-month-old Florida Broadleaf mustard (Brassica sp.) plants are sprayed with two different concentrations (1× and 0.5×) of the filter sterilized whole cell broth of Burkholderia sp. using a Paasche airbrush. Water and a commercial product of avermectin (Avid) are used as negative and positive controls, respectively. The plants are allowed to dry on the benchtop, after which they are placed in a 6-cup plastic container with a lid with airholes. Ten aphids at various developmental stages are placed on each test plant, and the plants are incubated under growth lamps for 7 days at 25° C. Daily evaluations for the number of aphids on each plant (summarized in table Table 8 below) are made and recorded in a notebook.

[5] = 10 μL of 1.25-20 mg/mL on disks

C/C=C1\NC(=O)C2CSSCC/C=C/C(CC(=O)NC(C(C)C)C(=O)N2)OC(=O)C(C(C)C)NC1=O (centres unmarked) [FR90128]
mortality at 10 µg/mL [1]: 90%
state of grass seedlings (in words) ([2]; 1 microliter of 10 mg/mL in ethanol added to 99 microliters water, all eight wells): dead with no green tissue left
effect on the growth of Monilinia (in words) (Monilinia fructicola): no effect
effect on hyphal growth of Botrytis (in words) (Botrytis cinerea; [5]): effective in controlling the hyphal growth
threshold concentration for inhibition, Botrytis (Botrytis cinerea; 10 μL per filter paper disk): 10 mg/mL
effect on hyphal growth of Phytophtora (in words) (Phytophtora sp.; [5]): effective in controlling the hyphal growth
threshold concentration for inhibition, Phytophtora (Phytophtora sp.; 10 μL per filter paper disk): 1.25 mg/mL

O=C(N[C@H](CO)[C@H](O)c1ccc([N+](=O)[O-])cc1)C(Cl)Cl [Chloramphenicol]
resistance of isolates (in words) (B. cepacia isolates): most of them are resistant
Susceptibility of Burkholderia A396 (in words) (Burkholderia A396): susceptible
strains resistant (B. cepacia complex): 85%
strains susceptible (B. cepacia complex): 15%

CCN1CCN(C(=O)N[C@@H](C(=O)N[C@@H]2C(=O)N3[C@@H]2SC(C)(C)[C@@H]3C(=O)O)c2ccccc2)C(=O)C1=O [Piperacillin]
Susceptibility of Burkholderia A396 (in words) (Burkholderia A396): susceptible

C[C@@H](O)[C@H]1C(=O)N2C(C(=O)O)=C(SCCN=CN)C[C@H]12 [Imipenem]
resistance of isolates (in words) (B. cepacia isolates): most of them are resistant
Susceptibility of Burkholderia A396 (in words) (Burkholderia A396): susceptible
strains susceptible (B. cepacia complex): 7%

COC(=O)c1nc(CC(C)C)oc1-c1c[nH]c2ccccc12 [templazole A]
herbicidal activity of pure compound (in words) (lettuce): active

Cc1cc(NS(=O)(=O)c2ccc(N)cc2)no1 [sulphametoxacole]
resistance of isolates (in words) (B. cepacia isolates): most of them are resistant

CCC(=O)OC(C)/C=C\C(=O)NC1CC(C)C(C/C=C(C)/C=C/C2OC(C)(O)C(O)C(O)(CO)C2O)OC1C (centres unmarked) [Templamide A]
mortality at 10 µg/mL [1]: 40%

templazole B
herbicidal activity of pure compound (in words) (lettuce): herbicidally active

CO/N=C(\C(=O)N[C@@H]1C(=O)N2C(C(=O)O)=C(COC(N)=O)CS[C@H]12)c1ccco1 [Cefuroxime]
resistance of isolates (in words) (B. cepacia isolates): most of them are resistant

CCC(=O)OC(C)/C=C\C(=O)NC1CC(C)C(C/C=C(C)/C=C/C2OC(C)(O)C(O)C3(CO3)C2O)OC1C (centres unmarked) [Templamide B]
(% Mortality) [1]: 80%
Grass seedlings (% Mortality) [2]: 0%
Lettuce seedlings (% Mortality) [3]: 75%
Lettuce seedlings (% Mortality) ([3]; listed as templamide B): 100%

CCC(=O)OC(C)/C=C\C(=O)NC1CC(C)C(C/C=C(C)/C=C/C2OC(C)(O)C(O)C3(CO3)C2O)OC1C (centres unmarked) [FR901465]
(% Mortality) [1]: 50%
Grass seedlings (% Mortality) [2]: 88%
Lettuce seedlings (% Mortality) [3]: 100%

CN(C)[C@@H]1C(O)=C(C(N)=O)C(=O)[C@@]2(O)C(O)=C3C(=O)c4c(O)cccc4[C@@](C)(O)[C@H]3C[C@@H]12 [Tetracycline]
resistance of isolates (in words) (B. cepacia isolates): most of them are resistant

CC[C@H](C)[C@H]1O[C@]2(C=C[C@@H]1C)C[C@@H]1C[C@@H](C/C=C(\C)[C@@H](O[C@H]3C[C@H](OC)[C@@H](O[C@H]4C[C@H](OC)[C@@H](O)[C@H](C)O4)[C@H](C)O3)[C@@H](C)/C=C/C=C3\CO[C@@H]4[C@H](O)C(C)=C[C@@H](C(=O)O1)[C@]34O)O2 [Avermectin]
# live aphids Day 2 [4]: 0
# live aphids Day 4 [4]: 0
# live aphids Day 7 [4]: 0

O=C(O)c1cn(C2CC2)c2cc(N3CCNCC3)c(F)cc2c1=O [Ciprofloxacin]
resistance of isolates (in words) (B. cepacia isolates): most of them are resistant
Susceptibility of Burkholderia A396 (in words) (Burkholderia A396): susceptible
strains susceptible (B. cepacia complex): 5%

NC[C@H]1O[C@H](O[C@H]2[C@H](O)[C@@H](O[C@H]3O[C@H](CO)[C@@H](O)[C@H](N)[C@H]3O)[C@H](N)C[C@@H]2N)[C@H](O)[C@@H](O)[C@@H]1O [Kanamycin]
Susceptibility of Burkholderia A396 (in words) (Burkholderia A396): susceptible
